# According to PMC8742467, “Therapeutical interference with the epigenetic landscape of germ cell tumors: a comparative drug study and new mechanistical insights” (Clinical Epigenetics, 2022):
# Experiments:
# [1] = tested on: Sertoli cells FS1 (SC); assay: XTT cell viability assay, Sertoli cells; assay type: cell-based; conditions: Homo sapiens; after 48 h
# Description: (§1) The […] (XTT) assays were performed as described previously. In summary, for GCT and fibroblast cell lines 5 × 10^3 cells (3 × 10^3 for UC, PCa and RCC cell lines) per 96-well were seeded and different drug concentrations (see Additional file 2: Fig. S2, Additional file 3: Fig. S3) or corresponding solvents were added to the cells the following day. For drug details see Additional file 12: Table S2 C. Each condition was analyzed in four technical replicates and EC50 values were calculated by GraphPad Prism v8.
# [2] = tested on: TCam-2 (SE); assay: XTT cell viability assay, TCam-2; assay type: cell-based; conditions: Homo sapiens; after 48 h, XTT, n = 4; read-out: EC50 colour/symbol code, SE TCam-2
# Description: as §1
# [3] = tested on: EC (embryonal carcinoma) cell lines; assay: XTT cell viability assay, mean per entity EC; assay type: cell-based; conditions: Homo sapiens, after 48 h
# Description: as §1
# [4] = tested on: transcriptome of 2102EP cells; assay: RNA sequencing; assay type: cell-based, Human; conditions: 16 h
# How it was run: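 Transcriptome of 2102EP cells sequenced; differential expression between two groups tested with p values FDR-corrected for multiple testing. Solvent-control values averaged across three datasets (GSE189472, GSE190792, GSE190022).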
# [5] = tested on: SE-R (cisplatin-resistant seminoma subclone); assay: XTT cell viability assay, mean per entity SE-R; assay type: cell-based; conditions: Homo sapiens, after 48 h
# Description: as §1
# [6] = tested on: CC-R (cisplatin-resistant choriocarcinoma subclones); assay: XTT cell viability assay, mean per entity CC-R; assay type: cell-based; conditions: Homo sapiens, after 48 h
# Description: as §1
# [7] = tested on: histone modifications in 2102EP cells; assay: Mass spectrometry analysis of histone modifications (Mod Spec); assay type: cell-based, Human; conditions: 2102EP cells; Mod Spec raw data
# How it was run: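 2102EP cells were treated for 16 h with EC50 concentrations of Quisinostat, JIB-04, Chaetocin, MZ-1, LP99, PRT4165 or GSK343, with DMSO as solvent control. After trypsin harvest, histones were extracted and analysed by mass spectrometry. Raw data were converted to z-scores.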
# [8] = sorted data log2>±1.5, FDR p<0.05
compound,measurement,setting,value
Cn1cc(CNCC2CCN(c3ncc(C(=O)NO)cn3)CC2)c2ccccc21 [Quisinostat],EC50,[1],6.25 nM
same,EC50,[2],< 1000 nM
same,EC50,[3],11.6 nM
same,EIF3CL Log2 fold change vs. DMSO,[4]; [8],-3.69
same,HBA1 Log2 fold change vs. DMSO,[4]; [8],5.01
same,IL13RA2 Log2 fold change vs. DMSO,[4]; [8],-2.69
same,LYST Log2 fold change vs. DMSO,[4]; [8],-2.73
same,TSPY4 Log2 fold change vs. DMSO,[4]; [8],5.17
same,TTC9B Log2 fold change vs. DMSO,[4]; [8],4.98
same,A1BG Log2 fold change vs. DMSO,[4]; unsorted data,1.07
same,A1CF Log2 fold change vs. DMSO,[4]; unsorted data,2.77
same,A2M Log2 fold change vs. DMSO,[4]; unsorted data,-0.10
same,EC50,[5],13.2 nM
same,EC50,[6],10.7 nM
same,"H1.4: K25AC, % of peptide pool",[7],0.02419%
same,"H1.4: K25ME1, % of peptide pool",[7],1.754%
same,"H1.4: K25ME2, % of peptide pool",[7],0.1017%
same,"H1.4: K25ME3, % of peptide pool",[7],0.01896%
same,"H1.4: K25UN, % of peptide pool",[7],98.1009%
same,"H2A1: K13AC, % of peptide pool",[7],0.02445%
same,"H2A1: K13UN, % of peptide pool",[7],99.9755%
same,"H2A1: K15AC, % of peptide pool",[7],0.008356%
same,"H2A1: K15UB, % of peptide pool",[7],0%
same,"H2A1: K15UN, % of peptide pool",[7],99.9916%
same,"H2A3: K13AC, % of peptide pool",[7],0.03116%
same,"H2A3: K13UN, % of peptide pool",[7],99.9688%
same,"H2A3: K15AC, % of peptide pool",[7],0.09989%
same,"H2A3: K15UB, % of peptide pool",[7],0%
same,"H2A3: K15UN, % of peptide pool",[7],99.9001%
same,"H2A: K5AC, % of peptide pool",[7],30.5025%
same,"H2A: K5UN, % of peptide pool",[7],69.4975%
same,"H2A: K9AC, % of peptide pool",[7],4.727%
same,"H2A: K9UN, % of peptide pool",[7],95.2735%
same,"H2A: K36AC, % of peptide pool",[7],0.03623%
same,"H2A: K36UN, % of peptide pool",[7],99.9638%
same,"H3: K9AC, % of peptide pool",[7],3.623%
same,"H3: K9ME1, % of peptide pool",[7],30.7914%
same,"H3: K9ME2, % of peptide pool",[7],27.5315%
same,"H3: K9ME3, % of peptide pool",[7],2.296%
same,"H3: K9UN, % of peptide pool",[7],35.7584%
same,"H3: K14AC, % of peptide pool",[7],58.3927%
same,"H3: K14UN, % of peptide pool",[7],41.6073%
same,"H3: K18AC, % of peptide pool",[7],38.2845%
same,"H3: K18ME1, % of peptide pool",[7],0.1021%
same,"H3: K18UN, % of peptide pool",[7],61.6134%
same,"H3: K23AC, % of peptide pool",[7],46.4415%
same,"H3: K23ME1, % of peptide pool",[7],0.02903%
same,"H3: K23UN, % of peptide pool",[7],53.5295%
same,"H3: K56AC, % of peptide pool",[7],0.1713%
same,"H3: K56ME1, % of peptide pool",[7],1.011%
same,"H3: K56UN, % of peptide pool",[7],98.8174%
same,"H3: K64AC, % of peptide pool",[7],0.03095%
same,"H3: K64UN, % of peptide pool",[7],99.9691%
same,"H3: K79AC, % of peptide pool",[7],0.6776%
same,"H3: K79ME1, % of peptide pool",[7],18.2028%
